# pEC50, pIC50: −log10 of the molar value. Like-named read-outs stand apart in the source and are kept apart here.
# What was measured:
# KRAS WT = KRAS WT (Homo sapiens (Human), UniProt P01116+P62937); experiment: Ras-Raf disruption/FRET/MOA assay, KRAS WT; format: biochemical; details: read-out: KRAS WT FRET IC50
# Source text: (§1) Disruption of B-Raf Ras-Binding Domain (BRAF^RBD) Interaction with K-Ras by Compounds of the Invention (Also Called a FRET Assay or an MOA Assay)
# (§2) Note—The following protocol describes a procedure for monitoring disruption of K-Ras G12C (GMP-PNP) binding to BRAF^RBD by a compound of the invention. This protocol may also be executed substituting other Ras proteins or nucleotides, such as K-Ras G12D and K-Ras G13D.
# (§3) The purpose of this biochemical assay was to measure the ability of test compounds to facilitate ternary complex formation between a nucleotide-loaded K-Ras isoform and Cyclophilin A; the resulting ternary complex disrupts binding to a BRAF^RBD construct, inhibiting K-Ras signaling through a RAF effector. Data is reported as IC50 values.
# (§4) In assay buffer containing 25 mM HEPES pH 7.3, 0.002% Tween20, 0.1% BSA, 100 mM NaCl and 5 mM MgCl2, tagless Cyclophilin A, His6-K-Ras-GMPPNP, and GST-BRAF^RBD were combined in a 384-well assay plate at final concentrations of 25 μM, 12.5 nM, and 50 nM, respectively. Compound was present in plate wells as a 10-point 3-fold dilution series starting at a final concentration of 30 μM. After incubation at 25° C. for 3 hours, a mixture of anti-His Eu—W1024 and anti-GST allophycocyanin was then added to assay sample wells at final concentrations of 10 nM and 50 nM, respectively, and the reaction incubated for an additional 1.5 hours. […] Compounds that facilitate disruption of a K-Ras: RAF complex were identified as those eliciting a decrease in the TR-FRET ratio relative to DMSO control wells.
# KRAS G12V = KRAS G12V (Homo sapiens (Human), UniProt P01116+P62937, G12V); experiment: Ras-Raf disruption/FRET/MOA assay, KRAS G12V; format: biochemical
# Sequence of KRAS G12V (P01116 other isoform, or with tags, fused parts or gaps G12V): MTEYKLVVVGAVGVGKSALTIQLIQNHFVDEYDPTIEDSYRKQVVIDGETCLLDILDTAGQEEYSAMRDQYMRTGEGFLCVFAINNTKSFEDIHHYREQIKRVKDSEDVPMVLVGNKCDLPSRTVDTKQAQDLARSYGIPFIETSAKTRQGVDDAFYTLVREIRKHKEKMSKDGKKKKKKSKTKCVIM
# Sequence of KRAS G12V (P62937 whole entry): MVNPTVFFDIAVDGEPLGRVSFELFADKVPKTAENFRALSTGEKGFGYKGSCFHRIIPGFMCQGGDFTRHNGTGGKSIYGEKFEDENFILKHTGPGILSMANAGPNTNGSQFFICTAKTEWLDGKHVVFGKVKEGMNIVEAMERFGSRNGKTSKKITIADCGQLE
# Source text: as §1, §2, §3, §4
# KRAS G12D = KRAS G12D (Homo sapiens (Human), UniProt P01116+P62937, G12D); experiment: Ras-Raf disruption/FRET/MOA assay, KRAS G12D; format: biochemical; details: read-out: KRAS G12D FRET IC50
# Sequence of KRAS G12D (P01116 other isoform, or with tags, fused parts or gaps G12D): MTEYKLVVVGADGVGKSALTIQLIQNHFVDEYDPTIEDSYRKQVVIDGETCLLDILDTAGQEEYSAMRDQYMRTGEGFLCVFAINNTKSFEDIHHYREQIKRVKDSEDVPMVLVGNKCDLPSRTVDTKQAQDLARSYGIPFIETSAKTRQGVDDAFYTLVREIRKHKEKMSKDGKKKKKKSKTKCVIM
# Sequence of KRAS G12D (P62937 whole entry): as the sequence (P62937 whole entry) above
# Source text: as §1, §2, §3, §4
# KRAS G12S = KRAS G12S (Homo sapiens (Human), UniProt P01116+P62937, G12S); experiment: Ras-Raf disruption/FRET/MOA assay, KRAS G12S; format: biochemical; details: read-out: KRAS G12S FRET IC50
# Sequence of KRAS G12S (P01116 other isoform, or with tags, fused parts or gaps G12S): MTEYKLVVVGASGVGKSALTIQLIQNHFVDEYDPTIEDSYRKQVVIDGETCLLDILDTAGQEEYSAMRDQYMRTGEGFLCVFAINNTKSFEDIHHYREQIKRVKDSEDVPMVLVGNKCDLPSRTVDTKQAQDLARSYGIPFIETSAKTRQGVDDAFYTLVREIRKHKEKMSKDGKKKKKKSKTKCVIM
# Sequence of KRAS G12S (P62937 whole entry): as the sequence (P62937 whole entry) above
# Source text: as §1, §2, §3, §4
# KRAS G12C = KRAS G12C (Homo sapiens (Human), UniProt P01116+P62937, G12C); experiment: Ras-Raf disruption/FRET/MOA assay, KRAS G12C; format: biochemical; details: read-out: KRAS G12C FRET data IC50
# Sequence of KRAS G12C (P01116-2 other isoform, or with tags, fused parts or gaps G12C): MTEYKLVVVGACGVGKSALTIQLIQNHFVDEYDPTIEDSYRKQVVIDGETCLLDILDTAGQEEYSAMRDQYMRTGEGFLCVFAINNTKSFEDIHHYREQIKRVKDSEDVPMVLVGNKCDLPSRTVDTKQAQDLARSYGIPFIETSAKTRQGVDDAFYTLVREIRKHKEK
# Sequence of KRAS G12C (P62937 whole entry): as the sequence (P62937 whole entry) above
# Source text: as §1, §2, §3, §4
# NRAS G12C = NRAS G12C (Homo sapiens (Human), UniProt P01111+P62937, G12C); experiment: Ras-Raf disruption/FRET/MOA assay, NRAS G12C; format: biochemical; details: read-out: NRAS G12C FRET data IC50
# Sequence of NRAS G12C (P01111 whole entry G12C): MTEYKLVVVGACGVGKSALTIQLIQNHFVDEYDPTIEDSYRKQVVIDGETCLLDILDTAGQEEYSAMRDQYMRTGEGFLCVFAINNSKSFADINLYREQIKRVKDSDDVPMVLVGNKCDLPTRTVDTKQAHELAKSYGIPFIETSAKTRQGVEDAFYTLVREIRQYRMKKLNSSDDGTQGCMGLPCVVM
# Sequence of NRAS G12C (P62937 whole entry): as the sequence (P62937 whole entry) above
# Source text: as §1, §2, §3, §4
# KRAS G13C = KRAS G13C (Homo sapiens (Human), UniProt P01116+P62937, G13C); experiment: Ras-Raf disruption/FRET/MOA assay, KRAS G13C; format: biochemical; details: read-out: KRAS G13C FRET IC50
# Sequence of KRAS G13C (P01116 other isoform, or with tags, fused parts or gaps G13C): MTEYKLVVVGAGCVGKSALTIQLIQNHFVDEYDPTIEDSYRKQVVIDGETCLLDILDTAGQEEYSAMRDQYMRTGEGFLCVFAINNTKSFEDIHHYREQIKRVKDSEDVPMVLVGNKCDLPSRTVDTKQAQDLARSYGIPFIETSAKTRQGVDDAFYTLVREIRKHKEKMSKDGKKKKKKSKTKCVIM
# Sequence of KRAS G13C (P62937 whole entry): as the sequence (P62937 whole entry) above
# Source text: as §1, §2, §3, §4
# KRAS G13D = KRAS G13D (Homo sapiens (Human), UniProt P01116+P62937, G13D); experiment: Ras-Raf disruption/FRET/MOA assay, KRAS G13D; format: biochemical; details: read-out: KRAS G13D FRET IC50
# Sequence of KRAS G13D (P01116 other isoform, or with tags, fused parts or gaps G13D): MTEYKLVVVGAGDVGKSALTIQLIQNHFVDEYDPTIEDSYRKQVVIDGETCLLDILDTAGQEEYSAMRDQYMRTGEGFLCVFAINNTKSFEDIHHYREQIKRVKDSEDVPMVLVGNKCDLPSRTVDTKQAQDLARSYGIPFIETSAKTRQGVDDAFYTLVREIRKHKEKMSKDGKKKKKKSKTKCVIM
# Sequence of KRAS G13D (P62937 whole entry): as the sequence (P62937 whole entry) above
# Source text: as §1, §2, §3, §4
# NCI-H358 (K-Ras G12C) = experiment: CellTiter-Glo cell viability assay, H358; format: cell-based, human; details: Homo sapiens, NCI-H358, 120 h, read-out: H358 Cell Viability IC50, K-Ras G12C, 5-day treatment
# Outline: (§5)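 Compounds dispensed directly onto seeded K-Ras mutant cells; plates read on day 5 after ~30 min equilibration to room temperature, by CellTiter-Glo luminescence. Signal normalized as (sample/mean DMSO)×100, then fitted to a four-parameter logistic curve.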
# AsPC-1 (K-Ras G12D) [1] = experiment: Potency assay: pERK; format: cell-based, human; details: Homo sapiens, ASPC1, read-out: pERK EC50
# Outline: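 Cells plated overnight, then exposed 4 h at 37 °C to 10-point 3-fold dilutions of compound, in duplicate. pERK read by AlphaLISA SureFire Ultra p-ERK1/2 lysate assay or by In-Cell Western (pERK antibody, DRAQ5 DNA normalisation). IC50 from 4-parameter sigmoidal fit of signal vs log concentration.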
# AsPC-1 (K-Ras G12D) [2] = experiment: CellTiter-Glo cell viability assay, AsPC-1; format: cell-based, human; details: Homo sapiens, ASPC1, 120 h, read-out: AsPC-1 Cell Viability IC50
# Outline: as §5
# Sequence of KRAS WT (P01116 other isoform, or with tags, fused parts or gaps): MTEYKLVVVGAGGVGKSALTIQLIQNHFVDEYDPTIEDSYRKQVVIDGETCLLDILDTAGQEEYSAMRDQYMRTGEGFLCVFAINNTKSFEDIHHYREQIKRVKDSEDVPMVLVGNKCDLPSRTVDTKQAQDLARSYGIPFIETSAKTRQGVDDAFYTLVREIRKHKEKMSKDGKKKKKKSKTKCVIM
# Sequence of KRAS WT (P62937 whole entry, the tested form may be a part): as the sequence (P62937 whole entry) above
SMILES,pIC50 (KRAS WT),pIC50 (KRAS G12V; read-out: KRAS G12V FRET IC50),pIC50 (KRAS G12D),pIC50 (KRAS G12S),pIC50 (KRAS G12C),pIC50 (NRAS G12C),pIC50 (KRAS G13C),pIC50 (KRAS G13D),pIC50 (NCI-H358 (K-Ras G12C)),pEC50 (AsPC-1 (K-Ras G12D) [1]),pIC50 (AsPC-1 (K-Ras G12D) [2]),other results
"CCn1c(-c2cccnc2[C@@H](C)OC)c2c3cc(ccc31)-c1cc(O)cc(c1)C[C@H](NC(=O)[C@H](C(C)C)N(C)C(=O)[C@H]1CCN(C(=O)[C@H]3CN3)C1)C(=O)N1CCC[C@H](N1)C(=O)OCC(C)(C)C2 (atropisomer, axis not shown) [Example 43B]",5.00 to 6.00,–,–,–,–,–,–,–,–,–,–,–
"CCn1c(-c2cnccc2COC)c2c3cc(ccc31)-c1cc(O)cc(c1)C[C@H](NC(=O)[C@H](C(C)C)N(C)C(=O)CCN(C)C(=O)[C@H]1CN1)C(=O)N1CCC[C@H](N1)C(=O)OCC(C)(C)C2 (single isomer, unassigned) [Example 41]",6.00 to 7.00,6.00 to 7.00,6.00 to 7.00,6.00 to 7.00,> 8.00,> 8.00,7.00 to 8.00,6.00 to 7.00,–,–,–,–
"CCn1c(-c2cnccc2COC)c2c3cc(ccc31)-c1cc(O)cc(c1)C[C@H](NC(=O)[C@H](C(C)C)N(C)C(=O)[C@H]1CCN(C(=O)[C@H]3CN3)C1)C(=O)N1CCC[C@H](N1)C(=O)OCC(C)(C)C2 [Example 1, (3S)-1-((R)-aziridine-2-carbonyl)-N-((2S)-1-(((6^3S,4S)-1^1-ethyl-25-hydroxy-1^2-(4-(methoxymethyl)pyridin-3-yl)-10,10-dimethyl-5,7-dioxo-6^1,6^2,6^3,6^4,6^5,6^6-hexahydro-1^1H-8-oxa-1 (5,3)-indola-6 (1,3)-pyridazina-2 (1,3)-benzenacycloundecaphane-4-yl)amino)-3-methyl-1-oxobutan-2-yl)-N-methylpyrrolidine-3-carboxamide]",6.00 to 7.00,7.00 to 8.00,6.00 to 7.00,7.00 to 8.00,> 8.00,> 8.00,6.00 to 7.00,6.00 to 7.00,–,–,–,–
CCn1c(-c2cnccc2COC)c2c3cc(ccc31)-c1cc(O)cc(c1)C[C@H](NC(=O)[C@H](C(C)C)N(C)C(=O)[C@H]1CCN(C(=O)[C@@H]3CN3)C1)C(=O)N1CCC[C@H](N1)C(=O)OCC(C)(C)C2 [Example 2],6.00 to 7.00,6.00 to 7.00,6.00 to 7.00,6.00 to 7.00,7.00 to 8.00,7.00 to 8.00,6.00 to 7.00,6.00 to 7.00,–,–,–,–
CCn1c(-c2cnccc2COC)c2c3cc(ccc31)-c1cc(O)cc(c1)C[C@H](NC(=O)[C@H](C(C)C)N(C)C(=O)C1CCN(C(=O)[C@H]3CN3)CC1)C(=O)N1CCC[C@H](N1)C(=O)OCC(C)(C)C2 [Example 3],6.00 to 7.00,6.00 to 7.00,5.00 to 6.00,6.00 to 7.00,7.00 to 8.00,7.00 to 8.00,7.00 to 8.00,6.00 to 7.00,–,–,–,–
CCn1c(-c2cnccc2COC)c2c3cc(ccc31)-c1cc(O)cc(c1)C[C@H](NC(=O)[C@H](C(C)C)N(C)C(=O)C1CCN(C(=O)[C@@H]3CN3)CC1)C(=O)N1CCC[C@H](N1)C(=O)OCC(C)(C)C2 [Example 4],6.00 to 7.00,6.00 to 7.00,5.00 to 6.00,6.00 to 7.00,7.00 to 8.00,6.00 to 7.00,7.00 to 8.00,6.00 to 7.00,–,–,–,–
CCn1c(-c2cccnc2[C@H](C)OC)c2c3cc(ccc31)-c1cccc(c1)C[C@H](NC(=O)[C@H](C(C)C)N(C)C(=O)CCN=C=NCc1ccccc1OC)C(=O)N1CCC[C@H](N1)C(=O)OCC(C)(C)C2 [Example 73],–,5.00 to 6.00,–,–,–,–,–,–,–,–,–,–
CCn1c(-c2cccnc2[C@H](C)OC)c2c3cc(ccc31)-c1cccc(c1)C[C@H](NC(=O)[C@H](C(C)C)N(C)C(=O)[C@H]1CC[C@H](N=C=NCc3ccccc3OC)C1)C(=O)N1CCC[C@H](N1)C(=O)OCC(C)(C)C2 [Example 76],–,5.00 to 6.00,–,–,–,–,–,–,–,–,–,–
CCn1c(-c2cccnc2[C@H](C)OC)c2c3cc(ccc31)-c1cccc(c1)C[C@H](NC(=O)[C@H](C(C)C)N(C)C(=O)[C@H]1CC[C@H](N=C=NC(C)(C)C)C1)C(=O)N1CCC[C@H](N1)C(=O)OCC(C)(C)C2 [Example 125],–,5.00 to 6.00,–,–,–,–,–,–,–,–,–,–
CCn1c(-c2cccnc2[C@H](C)OC)c2c3cc(ccc31)-c1cc(O)cc(c1)C[C@H](NC(=O)[C@H](C(C)C)N(C)C(=O)CN(C)C(=O)[C@H]1CN1CC1COC1)C(=O)N1CCC[C@H](N1)C(=O)OCC(C)(C)C2 (stereo partly drawn) [Example 277],–,–,–,–,–,–,–,–,7.00 to 8.00,> 5.30,6.00 to 7.00,–
CCn1c(-c2cccnc2[C@H](C)OC)c2c3cc(ccc31)-c1cc(O)cc(c1)C[C@H](NC(=O)[C@H](C(C)C)N(C)C(=O)CN(C)C(=O)[C@H]1CN1CC1(C)COC1)C(=O)N1CCC[C@H](N1)C(=O)OCC(C)(C)C2 (stereo partly drawn) [Example 279],–,–,–,–,–,–,–,–,> 8.00,> 5.30,6.00 to 7.00,–
CCn1c(-c2cccnc2[C@H](C)OC)c2c3cc(ccc31)-c1cc(O)cc(c1)C[C@H](NC(=O)[C@H](C(C)C)N(C)C(=O)CN(C)C(=O)[C@@H]1CN1CC1(C)COC1)C(=O)N1CCC[C@H](N1)C(=O)OCC(C)(C)C2 (stereo partly drawn) [Example 280],–,–,–,–,–,–,–,–,> 8.00,> 5.30,5.00 to 6.00,–
CCn1c(-c2cccnc2[C@H](C)OC)c2c3cc(ccc31)-c1cc(O)cc(c1)C[C@H](NC(=O)[C@H](C(C)C)N(C)C(=O)CN(C)C(=O)[C@@H]1N[C@H]1C1COC1)C(=O)N1CCC[C@H](N1)C(=O)OCC(C)(C)C2 [Example 283],–,–,–,–,–,–,–,–,7.00 to 8.00,> 5.30,6.00 to 7.00,–
CCn1c(-c2cccnc2[C@H](C)OC)c2c3cc(ccc31)-c1cc(O)cc(c1)C[C@H](NC(=O)[C@H](C(C)C)N(C)C(=O)CN(C)C(=O)[C@@H]1N[C@@H]1C1CCC1)C(=O)N1CCC[C@H](N1)C(=O)OCC(C)(C)C2 [Example 287],–,–,–,–,–,–,–,–,7.00 to 8.00,> 5.30,6.00 to 7.00,–
CCn1c(-c2cccnc2[C@H](C)OC)c2c3cc(ccc31)-c1cc(O)cc(c1)C[C@H](NC(=O)[C@H](C(C)C)N(C)C(=O)CN(C)C(=O)[C@H]1N[C@H]1C1CCC1)C(=O)N1CCC[C@H](N1)C(=O)OCC(C)(C)C2 [Example 288],–,–,–,–,–,–,–,–,7.00 to 8.00,> 5.30,6.00 to 7.00,–
CCn1c(-c2cccnc2[C@H](C)OC)c2c3cc(ccc31)-c1cc(O)cc(c1)C[C@H](NC(=O)[C@H](C1CCCC1)N(C)C(=O)[C@@H](C)N(C)C(=O)[C@@H]1N[C@@H]1C1CC1)C(=O)N1CCC[C@H](N1)C(=O)OCC(C)(C)C2 [Example 327],–,–,–,–,–,–,–,–,–,–,–,pIC50 (KRAS G12V): 5.00 to 6.00

# Source: patent US20250195521A1 (Revolution Medicines, Inc., priority 2020, published 2025)
